Experimental data: US20130034536A1, “Bile Acid Recycling Inhibitors for Treatment of Pancreatitis” (Lumena Pharmaceuticals, Inc., priority 2011, published 2013)

System: plasma active GLP-1 levels
Assay: In vivo effects of ASBT inhibitor SC-435 on plasma active GLP-1 levels in rats (ELISA)
Parameters: species or system Sprague Dawley rats
Method: Male Sprague Dawley rats (HSD) 12 weeks old were fasted overnight for 16 hours.
SC-435 (racemate form synthesized at Nanosyn Inc. Menlo Park, Calif.) in 1 ml of saline administrated orally via gavage tube (n=5 per group).
Blood samples (200 μl) taken from the caudal vein with capillary tube at […] after compound administration for testing of plasma active GLP-1 levels (ELISA, Millipore Inc.)
Blood was collected in ice-cooled EDTA vial. Immediately (<30 seconds) after collection DPP-IV inhibitor added (10mkl per 1 ml blood). Samples were centrifuged immediately at 1000×g for 10 minutes in refrigerated centrifuge. Plasma was stored at −70° C. until evaluation.

1-[4-[4-[(4R,5R)-3,3-dibutyl-7-(dimethylamino)-2,3,4,5-tetrahydro-4-hydroxy-1,1-dioxido-benzothiepin-5-yl]phenoxy]butyl]-4-aza-1-azoniabicyclo[2.2.2]octane methanesulfonate salt [SC-435]
time of peak GLP-1 after administration (after oral SC-435 administration): 3 to 5 h
increase of 5-hour integrated GLP-1 concentrations vs. vehicle (oral gavage, doses 3, 30 or 100 mg/kg, overnight-fasted male rats, dose-dependent): 2.5 fold
Peak GLP-1 (plasma active GLP-1 after oral SC-435): 30 to 36 pM
